Active and inactive are the calls of the source.
Key:
[1] = target: Cytochrome P450 2D6 (Homo sapiens, UniProt P10635); assay: qHTS Assay for Inhibitors and Substrates of Cytochrome P450 2D6. [Related pubchem assays: 410 ]; format: ADME; details: read-out: Potency
[2] = target: Procathepsin L (Homo sapiens, UniProt P07711); assay: CTSL1 protease inhibition – biochemical, QFRET, 1536-well, counter-screen for M1/M17 aminopeptidase inhibitor project, dose response (AID 2214)
[3] = target: T1, Leucine aminopeptidase (Plasmodium falciparum 3D7, UniProt Q8IL11); assay: P. falciparum M17LAP inhibitors, primary screen, biochemical, fluorogenic H-Leu-NHMec substrate, 1536-well (AID 1619); format: functional
T1 sequence (Q8IL11 whole entry): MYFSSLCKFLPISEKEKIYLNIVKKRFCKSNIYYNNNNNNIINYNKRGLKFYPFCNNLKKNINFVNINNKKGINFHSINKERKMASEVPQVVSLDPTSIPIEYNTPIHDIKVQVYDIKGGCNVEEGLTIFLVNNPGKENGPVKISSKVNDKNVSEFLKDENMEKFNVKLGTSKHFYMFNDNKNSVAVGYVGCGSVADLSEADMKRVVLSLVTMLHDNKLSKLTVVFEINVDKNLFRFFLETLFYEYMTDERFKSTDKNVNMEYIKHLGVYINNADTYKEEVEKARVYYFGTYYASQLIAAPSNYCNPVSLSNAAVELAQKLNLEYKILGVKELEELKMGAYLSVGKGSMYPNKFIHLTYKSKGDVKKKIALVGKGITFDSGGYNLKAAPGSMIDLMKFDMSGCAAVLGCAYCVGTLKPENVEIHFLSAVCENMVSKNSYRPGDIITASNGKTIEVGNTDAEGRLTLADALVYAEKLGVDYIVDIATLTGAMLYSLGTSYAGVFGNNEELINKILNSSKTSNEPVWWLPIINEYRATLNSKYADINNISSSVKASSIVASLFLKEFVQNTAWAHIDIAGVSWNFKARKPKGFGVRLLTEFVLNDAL

[4] = target: T2, Aspartyl aminopeptidase (Plasmodium falciparum 3D7, UniProt Q8I2J3); assay: Counterscreen for inhibitors of M1 and M17 aminopeptidases: QFRET-based biochemical high throughput dose response assay for inhibitors of the Plasmodium falciparum M18 Aspartyl Aminopeptidase (PFM18AAP). [Related PubChem assays: 1619 (Screening assay (M17LAP inhibitors).), 1445 (Screening assay (M1AAP inhibitors).)]
T2 sequence (Q8I2J3 whole entry): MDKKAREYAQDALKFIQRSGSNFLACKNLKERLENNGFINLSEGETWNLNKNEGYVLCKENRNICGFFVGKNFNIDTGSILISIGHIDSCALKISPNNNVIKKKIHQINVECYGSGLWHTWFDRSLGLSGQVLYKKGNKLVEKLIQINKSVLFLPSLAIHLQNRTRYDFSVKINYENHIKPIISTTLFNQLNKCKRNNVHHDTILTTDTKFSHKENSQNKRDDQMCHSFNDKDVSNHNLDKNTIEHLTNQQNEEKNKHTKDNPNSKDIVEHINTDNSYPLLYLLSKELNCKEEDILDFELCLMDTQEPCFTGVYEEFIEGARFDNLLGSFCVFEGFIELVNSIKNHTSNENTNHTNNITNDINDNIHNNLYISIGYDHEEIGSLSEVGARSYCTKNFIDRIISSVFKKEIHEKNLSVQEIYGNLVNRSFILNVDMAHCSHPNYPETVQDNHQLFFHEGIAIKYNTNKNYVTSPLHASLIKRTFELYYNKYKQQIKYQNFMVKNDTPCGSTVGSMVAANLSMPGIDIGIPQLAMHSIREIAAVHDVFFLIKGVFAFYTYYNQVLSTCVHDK

[5] = P. falciparum Dd2 growth inhibitors, dose response, SYBR Green, cherry-picked samples (AID 1159567); format: functional, cell-based
[6] = toxicity to human hepatoma HepG2 cells – cell-based, cherry-picked samples, cytotoxicity control, dose response (AID 1159577); format: functional
[7] = cells
[8] = Trypanosoma cruzi growth suppression in host cells – NIH3T3 host cells, beta-gal luminescence, confirmation (AID 2044); format: functional, cell-based;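 further: intracellular parasites grown in NIH/3T3 mouse fibroblasts as host cells; luminescent beta-galactosidase reporter signal from transgenic T. cruzi replicating inside host cells; inhibitors lower the luminescence signal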
[9] = NIH3T3 cell viability loss – ATP luminescence, mouse fibroblasts, counter-screen, dose response (AID 2010); format: functional, cell-based;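 further: cells exposed to compound for about 90 hours before reading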
[10] = tested on: HT-1080; assay: HT1080 cell viability loss – fluorescence readout (AID 620); format: functional, cell-based; details: Homo sapiens
[11] = target: Luciferin 4-monooxygenase (Photinus pyralis, UniProt P08659); assay: Counter Screen for Luciferase-based Assay Positives. [Related pubchem assays: 620, 618, 411 ]
Sequence of Luciferin 4-monooxygenase (P08659 whole entry): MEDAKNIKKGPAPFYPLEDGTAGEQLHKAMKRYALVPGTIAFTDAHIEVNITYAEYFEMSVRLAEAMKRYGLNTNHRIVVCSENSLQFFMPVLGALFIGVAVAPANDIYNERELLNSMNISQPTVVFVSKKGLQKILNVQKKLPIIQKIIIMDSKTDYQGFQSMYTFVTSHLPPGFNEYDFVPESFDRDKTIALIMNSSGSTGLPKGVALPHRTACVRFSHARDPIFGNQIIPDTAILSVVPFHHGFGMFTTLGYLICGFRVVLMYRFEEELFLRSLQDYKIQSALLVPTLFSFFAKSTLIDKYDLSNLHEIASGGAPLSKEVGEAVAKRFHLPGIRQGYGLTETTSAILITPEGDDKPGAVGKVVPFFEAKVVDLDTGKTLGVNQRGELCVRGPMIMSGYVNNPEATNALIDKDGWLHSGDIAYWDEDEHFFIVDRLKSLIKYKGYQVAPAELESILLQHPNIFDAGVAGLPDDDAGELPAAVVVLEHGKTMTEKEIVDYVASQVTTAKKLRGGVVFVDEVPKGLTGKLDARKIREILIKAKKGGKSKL

[12] = target: Neurotensin receptor type 1 (Homo sapiens, UniProt P30989); format: functional;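 further: Image-based confirmatory dose-response assay measuring agonist activity at NTR1; NTR1-expressing U2OS osteosarcoma cells imaged for beta-arrestin GFP spot formation; agonist potency where compounds increase beta-arrestin recruitment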
Sequence of Neurotensin receptor type 1 (P30989 whole entry): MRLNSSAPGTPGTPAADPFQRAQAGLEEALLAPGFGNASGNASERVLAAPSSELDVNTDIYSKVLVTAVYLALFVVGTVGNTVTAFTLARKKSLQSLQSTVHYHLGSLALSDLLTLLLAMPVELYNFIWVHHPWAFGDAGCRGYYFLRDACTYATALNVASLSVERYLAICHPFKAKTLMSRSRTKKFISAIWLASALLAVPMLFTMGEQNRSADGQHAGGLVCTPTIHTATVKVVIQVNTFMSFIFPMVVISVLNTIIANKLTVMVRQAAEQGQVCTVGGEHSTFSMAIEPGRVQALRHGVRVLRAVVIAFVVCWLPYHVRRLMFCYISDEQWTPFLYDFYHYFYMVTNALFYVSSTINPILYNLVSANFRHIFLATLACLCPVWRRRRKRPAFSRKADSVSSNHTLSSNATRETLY

[13] = target: T3, Estrogen receptor (Homo sapiens, UniProt P03372);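 further: potency for inhibiting coactivator peptide recruitment to the receptor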
T3 sequence (P03372 whole entry): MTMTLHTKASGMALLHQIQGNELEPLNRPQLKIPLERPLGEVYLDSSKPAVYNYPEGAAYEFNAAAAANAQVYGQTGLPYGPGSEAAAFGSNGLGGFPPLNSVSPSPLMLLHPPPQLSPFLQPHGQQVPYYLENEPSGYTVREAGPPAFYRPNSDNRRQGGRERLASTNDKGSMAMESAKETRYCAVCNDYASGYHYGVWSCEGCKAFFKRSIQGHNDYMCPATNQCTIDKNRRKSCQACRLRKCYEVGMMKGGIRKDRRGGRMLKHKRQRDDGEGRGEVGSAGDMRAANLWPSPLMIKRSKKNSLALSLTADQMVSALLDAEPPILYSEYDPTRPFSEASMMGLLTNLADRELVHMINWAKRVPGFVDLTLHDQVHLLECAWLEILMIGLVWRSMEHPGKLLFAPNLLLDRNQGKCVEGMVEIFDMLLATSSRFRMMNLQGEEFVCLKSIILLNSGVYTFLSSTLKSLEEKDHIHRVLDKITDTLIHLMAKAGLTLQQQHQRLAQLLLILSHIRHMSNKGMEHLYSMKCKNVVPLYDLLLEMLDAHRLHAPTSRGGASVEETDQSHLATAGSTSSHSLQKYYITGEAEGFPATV

[14] = Shn3 3'UTR reporter signal decrease – cell-based, Clone20 osteoblasts, firefly luciferase, cherry-pick, set 2, Schnurri-3 inhibitor project, dose response (AID 720490); format: functional;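 further: actives lower the luminescence signal as inhibitors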
[15] = reduction of Shn3 3'UTR-driven luciferase in osteoblasts – cell-based, Clone20 osteoblasts, firefly luciferase, cherry-picked, dose response (AID 624132); format: functional;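 further: firefly luciferase luminescence from reporter carrying the Shn3 3'UTR in osteoblasts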
[16] = target: Metabotropic glutamate receptor 5 (Rattus norvegicus, UniProt P31424); assay: Identification of a glycine sulfonamide based non-MPEP site positive allosteric potentiator (PAM) of mGlu5 (calcium_assay).; format: functional
Sequence of Metabotropic glutamate receptor 5 (P31424 whole entry): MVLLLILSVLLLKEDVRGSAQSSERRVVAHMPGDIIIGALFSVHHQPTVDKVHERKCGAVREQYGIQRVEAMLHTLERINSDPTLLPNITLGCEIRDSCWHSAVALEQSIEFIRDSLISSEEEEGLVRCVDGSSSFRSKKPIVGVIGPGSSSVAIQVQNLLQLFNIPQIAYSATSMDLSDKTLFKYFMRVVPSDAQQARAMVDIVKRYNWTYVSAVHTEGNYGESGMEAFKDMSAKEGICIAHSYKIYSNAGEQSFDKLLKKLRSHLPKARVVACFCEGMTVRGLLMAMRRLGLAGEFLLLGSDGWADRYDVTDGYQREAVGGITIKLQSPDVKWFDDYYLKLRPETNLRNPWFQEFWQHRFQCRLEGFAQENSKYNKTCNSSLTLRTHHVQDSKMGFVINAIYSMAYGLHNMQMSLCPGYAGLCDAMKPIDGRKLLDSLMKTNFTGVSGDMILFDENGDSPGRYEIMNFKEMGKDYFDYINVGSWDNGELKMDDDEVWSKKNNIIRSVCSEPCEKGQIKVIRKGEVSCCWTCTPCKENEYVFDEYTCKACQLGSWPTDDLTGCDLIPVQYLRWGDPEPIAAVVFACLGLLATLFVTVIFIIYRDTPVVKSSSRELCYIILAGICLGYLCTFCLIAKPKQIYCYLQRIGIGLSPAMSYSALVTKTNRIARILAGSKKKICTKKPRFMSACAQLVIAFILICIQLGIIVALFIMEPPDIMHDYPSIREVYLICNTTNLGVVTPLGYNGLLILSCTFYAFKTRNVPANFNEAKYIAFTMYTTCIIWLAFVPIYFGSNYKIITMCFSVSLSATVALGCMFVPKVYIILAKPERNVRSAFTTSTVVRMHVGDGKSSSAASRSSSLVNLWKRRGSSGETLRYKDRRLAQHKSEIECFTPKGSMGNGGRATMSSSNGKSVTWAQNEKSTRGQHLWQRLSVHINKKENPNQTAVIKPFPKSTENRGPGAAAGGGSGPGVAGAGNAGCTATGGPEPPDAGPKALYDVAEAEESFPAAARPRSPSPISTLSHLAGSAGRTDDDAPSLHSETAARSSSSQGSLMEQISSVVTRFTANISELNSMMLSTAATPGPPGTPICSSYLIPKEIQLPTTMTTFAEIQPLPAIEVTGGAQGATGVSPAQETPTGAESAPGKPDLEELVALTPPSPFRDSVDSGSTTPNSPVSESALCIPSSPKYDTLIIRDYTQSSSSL

[17] = target: NAD-dependent protein deacylase sirtuin-5, mitochondrial (Homo sapiens, UniProt Q9NXA8); assay: sirtuin-5 deacylation blockers, concentration series – biochemical, fluorescence imaging, cherry-pick, set 5, dose response (AID 720591);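 further: desuccinylation of succinyl peptide AMC substrate read as fluorescence after trypsin release; potency of inhibitors that lower fluorescence and may act on trypsin instead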
Sequence of NAD-dependent protein deacylase sirtuin-5, mitochondrial (Q9NXA8 whole entry): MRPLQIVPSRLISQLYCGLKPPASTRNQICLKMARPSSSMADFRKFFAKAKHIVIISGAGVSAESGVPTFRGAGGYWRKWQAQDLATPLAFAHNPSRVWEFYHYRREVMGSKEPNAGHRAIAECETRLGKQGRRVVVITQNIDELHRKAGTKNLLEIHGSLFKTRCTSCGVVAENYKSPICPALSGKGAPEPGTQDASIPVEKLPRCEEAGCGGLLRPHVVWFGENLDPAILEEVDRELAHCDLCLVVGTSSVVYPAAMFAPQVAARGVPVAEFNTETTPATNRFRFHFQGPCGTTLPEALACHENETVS

[18] = target: Glyceraldehyde-3-phosphate dehydrogenase (Homo sapiens, UniProt P04406)
Sequence of Glyceraldehyde-3-phosphate dehydrogenase (P04406 whole entry): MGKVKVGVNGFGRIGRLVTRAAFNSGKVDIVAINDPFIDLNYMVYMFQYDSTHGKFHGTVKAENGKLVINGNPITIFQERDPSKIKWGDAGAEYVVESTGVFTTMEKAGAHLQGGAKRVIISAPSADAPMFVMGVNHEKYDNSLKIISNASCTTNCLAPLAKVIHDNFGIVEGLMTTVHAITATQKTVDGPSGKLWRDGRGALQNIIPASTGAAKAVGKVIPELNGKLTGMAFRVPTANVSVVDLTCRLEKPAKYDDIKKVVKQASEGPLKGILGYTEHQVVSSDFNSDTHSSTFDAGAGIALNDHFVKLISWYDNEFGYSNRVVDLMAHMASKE

[19] = target: T4, Corticotropin-releasing factor receptor 2/Corticotropin-releasing factor-binding protein (Homo sapiens, UniProt P24387+Q13324); assay: activators of CRF receptor 2 with binding protein – uHTS hits, confirmation (AID 602473); format: functional; details: read-out: EC50_Mean
T4 sequence (Q13324 whole entry): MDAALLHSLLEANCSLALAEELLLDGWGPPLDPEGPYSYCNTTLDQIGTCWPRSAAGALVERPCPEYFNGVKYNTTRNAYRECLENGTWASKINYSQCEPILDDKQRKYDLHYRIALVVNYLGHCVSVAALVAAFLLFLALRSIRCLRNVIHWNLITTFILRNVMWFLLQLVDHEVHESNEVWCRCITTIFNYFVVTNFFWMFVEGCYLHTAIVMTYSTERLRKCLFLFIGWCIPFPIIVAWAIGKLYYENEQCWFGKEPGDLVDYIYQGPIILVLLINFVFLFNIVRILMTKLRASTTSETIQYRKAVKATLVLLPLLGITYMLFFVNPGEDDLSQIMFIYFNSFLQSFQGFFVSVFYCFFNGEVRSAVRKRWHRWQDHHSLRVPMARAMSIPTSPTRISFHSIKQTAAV
T4 sequence (P24387 whole entry): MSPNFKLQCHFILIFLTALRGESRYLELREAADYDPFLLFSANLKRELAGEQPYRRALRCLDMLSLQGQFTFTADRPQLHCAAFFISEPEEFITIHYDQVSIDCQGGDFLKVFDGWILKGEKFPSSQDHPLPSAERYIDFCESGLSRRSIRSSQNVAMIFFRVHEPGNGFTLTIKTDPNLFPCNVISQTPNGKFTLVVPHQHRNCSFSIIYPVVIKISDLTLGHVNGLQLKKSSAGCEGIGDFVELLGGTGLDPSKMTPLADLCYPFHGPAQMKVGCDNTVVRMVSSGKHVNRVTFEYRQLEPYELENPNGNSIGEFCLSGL

[20] = target: T5, Aminopeptidase N (Plasmodium falciparum FcB1/Columbia, UniProt O96935); assay: malaria alanyl aminopeptidase activity blockers – biochemical, fluorogenic H-Leu-NHMec substrate, 1536-well (AID 1445); set-up: species or system Plasmodium falciparum 3D7, 3D7
T5 sequence (O96935 whole entry): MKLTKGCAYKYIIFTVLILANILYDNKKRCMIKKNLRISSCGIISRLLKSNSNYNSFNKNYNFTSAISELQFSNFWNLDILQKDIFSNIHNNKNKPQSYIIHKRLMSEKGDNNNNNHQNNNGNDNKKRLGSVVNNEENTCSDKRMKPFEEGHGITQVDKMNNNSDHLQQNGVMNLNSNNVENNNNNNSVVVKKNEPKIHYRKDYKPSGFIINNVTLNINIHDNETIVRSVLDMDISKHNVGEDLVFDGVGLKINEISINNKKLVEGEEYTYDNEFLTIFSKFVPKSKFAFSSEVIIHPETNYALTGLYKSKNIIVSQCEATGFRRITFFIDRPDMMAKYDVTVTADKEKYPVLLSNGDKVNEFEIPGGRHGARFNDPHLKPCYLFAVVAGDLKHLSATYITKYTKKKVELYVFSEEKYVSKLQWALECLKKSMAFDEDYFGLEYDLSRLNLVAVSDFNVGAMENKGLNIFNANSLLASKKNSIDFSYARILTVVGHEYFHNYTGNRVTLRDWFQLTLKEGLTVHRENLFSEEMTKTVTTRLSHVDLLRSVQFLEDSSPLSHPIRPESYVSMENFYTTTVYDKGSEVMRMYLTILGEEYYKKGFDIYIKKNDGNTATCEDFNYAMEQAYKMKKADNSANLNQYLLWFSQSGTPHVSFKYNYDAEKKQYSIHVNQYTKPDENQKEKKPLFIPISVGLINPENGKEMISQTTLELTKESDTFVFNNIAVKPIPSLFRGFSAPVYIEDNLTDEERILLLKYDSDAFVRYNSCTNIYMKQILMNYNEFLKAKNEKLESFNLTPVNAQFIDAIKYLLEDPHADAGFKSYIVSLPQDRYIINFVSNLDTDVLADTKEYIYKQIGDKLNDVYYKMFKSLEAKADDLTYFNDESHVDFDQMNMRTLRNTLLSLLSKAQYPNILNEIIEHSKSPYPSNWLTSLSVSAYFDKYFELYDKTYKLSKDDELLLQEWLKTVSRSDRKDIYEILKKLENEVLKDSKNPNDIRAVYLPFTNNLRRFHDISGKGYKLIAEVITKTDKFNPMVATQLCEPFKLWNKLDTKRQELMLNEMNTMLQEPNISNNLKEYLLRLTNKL

Sequence of Procathepsin L (P07711 whole entry): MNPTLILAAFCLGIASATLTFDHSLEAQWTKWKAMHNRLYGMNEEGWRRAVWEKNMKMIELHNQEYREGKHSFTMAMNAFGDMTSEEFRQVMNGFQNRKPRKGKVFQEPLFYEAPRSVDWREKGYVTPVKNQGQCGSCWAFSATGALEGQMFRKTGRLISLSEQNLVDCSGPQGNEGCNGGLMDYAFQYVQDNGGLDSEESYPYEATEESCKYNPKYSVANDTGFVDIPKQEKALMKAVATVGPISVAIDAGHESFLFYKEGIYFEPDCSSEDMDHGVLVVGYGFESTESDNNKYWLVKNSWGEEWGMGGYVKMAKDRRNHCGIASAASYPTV
Sequence of Cytochrome P450 2D6 (P10635 whole entry): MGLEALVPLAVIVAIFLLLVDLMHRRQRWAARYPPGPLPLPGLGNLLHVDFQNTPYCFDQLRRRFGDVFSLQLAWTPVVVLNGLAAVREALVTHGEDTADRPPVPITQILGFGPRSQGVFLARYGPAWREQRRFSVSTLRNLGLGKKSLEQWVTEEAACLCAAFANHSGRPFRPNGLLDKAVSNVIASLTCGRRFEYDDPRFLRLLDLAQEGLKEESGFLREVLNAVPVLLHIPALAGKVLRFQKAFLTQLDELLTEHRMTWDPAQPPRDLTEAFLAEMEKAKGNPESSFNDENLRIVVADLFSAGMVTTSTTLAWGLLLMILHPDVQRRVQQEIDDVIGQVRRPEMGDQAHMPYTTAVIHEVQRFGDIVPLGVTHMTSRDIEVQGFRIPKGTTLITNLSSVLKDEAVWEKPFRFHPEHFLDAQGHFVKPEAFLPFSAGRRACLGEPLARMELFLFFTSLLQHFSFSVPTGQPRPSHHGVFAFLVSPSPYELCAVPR

## Cc1ccc(C(=O)[C@@H]2[C@@H]3[C@@H](C(=O)[C@@H]4OC[C@H]3O4)[C@@H]3C=Cc4ccccc4N23)cc1
[1]
  AC50: 20 µM (inconclusive)

## Cc1ccc(NC(=O)CSc2nc(O)c3c(n2)CCC3)cc1C
[2]
  IC50: > 59.6 µM (not active)
[3]
  IC50: 5.9 µM (active)
[4]
  IC50: > 73.5 µM (not active)

## COc1cccc(CN2C[C@@H]3N[C@H](C2)[C@@H]3c2ccc(-c3ccncc3)cc2)c1
[5]
  AC50: 4.63 µM (active)
[6]
  AC50: > 39 µM (inactive)

## O=C(CCCn1cnc([N+](=O)[O-])n1)Nc1ccc(F)c(Cl)c1
[7]
  EC50: 0.098 µM (active)
[8]
  EC50: < 0.1 µM (active)
[9]
  EC50: > 60 µM (not active)

## CCCCN(C)C(=O)c1cc2cc3ccc(OC)cc3nc2s1
[10]
  EC50: > 50 µM (not active)
[11]
  EC50: 0.22 µM (active)

## COC(=O)c1ccc(/C=C/C(=O)OCC(=O)Nc2sccc2C(N)=O)cc1
[12]
  EC50: 18.9 µM (active)

## O=S(=O)(NCc1csc(-c2cccnc2)n1)c1cccs1
[13]
  IC50: 18 µM (active)

## N#Cc1ccc(-c2ccc([C@@H]3[C@@H]4CN(Cc5ccccc5F)C[C@H]3N4)cc2)cc1
[5]
  AC50: 1.88 µM (active)
[6]
  AC50: 9.39 µM (active)

## C=CCn1c(SCC(=O)Nc2cccc3ccccc23)nc(=O)c(CC)c1O
[2]
  IC50: > 59.6 µM (not active)
[3]
  IC50: 4.06 µM (active)
[4]
  IC50: > 73.5 µM (not active)

## CCCCN1CC(COCc2ccccc2)Oc2cccc(Oc3ccc(C(C)C)cc3)c2S1(=O)=O (stereo not drawn)
[14]
  AC50: 4.4 µM (active)
[15]
  AC50: 5.03 µM (active)

## CS(=O)(=O)N(CC(=O)Nc1ccccc1)c1ccccc1Cl
[16]
  EC50: 0.049 µM

## CC(C)NC(=O)CN(c1ccccc1Cl)S(C)(=O)=O
[16]
  EC50: > 30 µM (inactive)

## Cc1cc(=O)oc2c(C)c(OC(C)C(=O)NCCCN3CCCC3=O)ccc12 (stereo not drawn)
[17]
  AC50: > 30 µM (inactive)

## CC(C(=O)NC(N)=O)N1C(=O)NC(c2ccccc2)(c2ccccc2)C1=O (stereo not drawn)
[17]
  AC50: > 30 µM (inactive)

## COCCn1c(C)cc(C(=O)CSc2ccc(NC(C)=O)cc2)c1C
[10]
  EC50: > 50 µM (not active)
[11]
  EC50: 3.66 µM (active)
[18]
  IC50: > 100 µM (not active)
[19]
  EC50: > 53 µM (inactive)

## Cc1ccc(S(=O)(=O)CC(=O)N(CCCN(C)C)c2nc3ccc(C)cc3s2)cc1
[7]
  EC50: 0.06 µM (active)
[8]
  EC50: < 0.1 µM (active)
[9]
  EC50: > 30 µM (not active)

## O=C(Nn1c(C2CCC2)nc2ccccc2c1=O)c1cccs1
[2]
  IC50: > 59.6 µM (not active)
[20]
  IC50: 8.54 µM (active)
[4]
  IC50: > 73.5 µM (not active)

## CC(C)Oc1ccc(CNCCC2(C(C)C)CCOC(C)(C)C2)cc1 (stereo not drawn)
[7]
  EC50: 0.154 µM (active)
[8]
  EC50: < 0.1 µM (active)
[9]
  EC50: > 60 µM (not active)

## COc1ccc2cc3c(N)nn(C(=O)Cc4ccc(Cl)cc4)c3nc2c1
[13]
  IC50: 24.8 µM (active)
